Measured values taken from ChEMBL document CHEMBL1201862, “PubChem BioAssay data set” (2004).
Activity calls are given as the source filed them. Rule as the data show it: actives have a measured IC50 and inactives only a lower limit.

Tests used:
Assay type in all cases: functional
[1] = molecular target: T1, Sentrin-specific protease 8 (Homo sapiens, UniProt Q96LD8);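 also: luminescence read-out of SENP8 inhibition, dose-response confirmation following an ultra-high-throughput screen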
T1 sequence (Q96LD8 whole entry): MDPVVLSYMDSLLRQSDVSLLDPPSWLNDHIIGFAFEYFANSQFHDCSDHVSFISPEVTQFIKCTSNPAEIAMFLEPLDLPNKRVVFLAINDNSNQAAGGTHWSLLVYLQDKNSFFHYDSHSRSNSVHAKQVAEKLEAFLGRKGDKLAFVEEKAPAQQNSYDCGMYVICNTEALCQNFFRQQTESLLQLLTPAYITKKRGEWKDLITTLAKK

[2] = molecular target: T2, Sentrin-specific protease 7 (Homo sapiens, UniProt Q9BQF6);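 also: Luminescence-based dose-response confirmation of ultra-high-throughput screening hits, measuring inhibition of SENP7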
T2 sequence (Q9BQF6 whole entry): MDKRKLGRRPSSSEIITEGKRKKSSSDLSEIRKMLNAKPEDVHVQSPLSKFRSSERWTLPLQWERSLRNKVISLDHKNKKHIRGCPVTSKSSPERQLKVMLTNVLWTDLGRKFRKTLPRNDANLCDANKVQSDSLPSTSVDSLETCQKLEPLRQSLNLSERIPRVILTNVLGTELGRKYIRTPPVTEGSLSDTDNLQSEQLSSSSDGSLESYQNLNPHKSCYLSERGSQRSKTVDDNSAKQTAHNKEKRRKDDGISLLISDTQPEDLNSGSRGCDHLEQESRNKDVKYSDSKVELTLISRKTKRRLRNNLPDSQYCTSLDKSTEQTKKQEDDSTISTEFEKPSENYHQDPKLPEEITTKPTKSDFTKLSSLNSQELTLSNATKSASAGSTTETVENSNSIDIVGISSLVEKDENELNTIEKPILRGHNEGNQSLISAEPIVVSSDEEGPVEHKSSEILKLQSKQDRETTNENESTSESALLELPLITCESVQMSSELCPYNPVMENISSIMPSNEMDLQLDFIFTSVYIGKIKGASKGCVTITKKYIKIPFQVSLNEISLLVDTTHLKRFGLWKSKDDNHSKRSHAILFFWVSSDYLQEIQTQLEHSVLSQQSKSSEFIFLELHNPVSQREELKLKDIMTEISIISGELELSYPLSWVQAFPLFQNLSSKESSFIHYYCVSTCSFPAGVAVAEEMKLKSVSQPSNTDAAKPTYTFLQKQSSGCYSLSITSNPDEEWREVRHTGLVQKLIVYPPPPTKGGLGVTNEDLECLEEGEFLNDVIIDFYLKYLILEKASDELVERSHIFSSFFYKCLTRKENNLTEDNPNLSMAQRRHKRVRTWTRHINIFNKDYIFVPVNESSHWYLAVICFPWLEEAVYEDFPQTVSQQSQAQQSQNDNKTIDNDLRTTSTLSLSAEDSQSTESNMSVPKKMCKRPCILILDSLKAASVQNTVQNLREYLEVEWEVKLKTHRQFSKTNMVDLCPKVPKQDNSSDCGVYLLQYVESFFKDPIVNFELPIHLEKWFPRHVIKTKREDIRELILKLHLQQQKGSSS

[3] = molecular target: T3, Sentrin-specific protease 6 (Homo sapiens, UniProt Q9GZR1);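 also: Luminescence-based dose-response confirmatory assay of SENP6 inhibition, following up an ultra-high-throughput screen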
T3 sequence (Q9GZR1 whole entry): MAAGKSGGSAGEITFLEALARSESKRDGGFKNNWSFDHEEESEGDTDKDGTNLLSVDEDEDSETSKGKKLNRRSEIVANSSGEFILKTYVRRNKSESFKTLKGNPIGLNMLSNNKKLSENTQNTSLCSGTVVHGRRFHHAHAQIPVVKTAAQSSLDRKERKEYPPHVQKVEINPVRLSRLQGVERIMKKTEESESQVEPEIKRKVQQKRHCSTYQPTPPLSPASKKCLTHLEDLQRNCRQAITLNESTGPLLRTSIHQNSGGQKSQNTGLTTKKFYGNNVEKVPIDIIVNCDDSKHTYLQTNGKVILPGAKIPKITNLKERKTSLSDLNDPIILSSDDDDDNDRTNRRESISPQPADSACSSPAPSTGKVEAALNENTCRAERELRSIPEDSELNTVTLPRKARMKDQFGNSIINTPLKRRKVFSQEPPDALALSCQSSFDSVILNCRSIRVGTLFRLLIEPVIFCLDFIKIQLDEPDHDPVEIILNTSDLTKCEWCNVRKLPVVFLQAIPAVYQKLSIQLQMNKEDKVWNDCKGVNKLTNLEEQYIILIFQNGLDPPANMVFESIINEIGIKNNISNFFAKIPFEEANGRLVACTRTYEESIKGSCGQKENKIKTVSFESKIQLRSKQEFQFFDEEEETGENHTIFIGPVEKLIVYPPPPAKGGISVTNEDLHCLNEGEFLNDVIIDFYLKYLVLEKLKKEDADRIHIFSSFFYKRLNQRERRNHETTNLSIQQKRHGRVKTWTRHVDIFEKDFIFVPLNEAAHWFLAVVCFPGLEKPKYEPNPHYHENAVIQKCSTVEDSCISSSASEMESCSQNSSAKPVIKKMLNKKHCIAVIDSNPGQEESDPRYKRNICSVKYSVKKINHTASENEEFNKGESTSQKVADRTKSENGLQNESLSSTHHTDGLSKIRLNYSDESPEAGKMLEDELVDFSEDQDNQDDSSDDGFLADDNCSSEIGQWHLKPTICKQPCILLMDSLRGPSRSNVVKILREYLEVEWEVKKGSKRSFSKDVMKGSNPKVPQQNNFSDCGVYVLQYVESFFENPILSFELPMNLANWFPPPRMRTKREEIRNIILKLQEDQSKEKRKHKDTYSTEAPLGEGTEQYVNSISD

| SMILES | IC50 [1] | IC50 [2] | IC50 [3] |
| --- | --- | --- | --- |
| CCOC(=O)c1c(NS(=O)(=O)c2ccccc2)n(CCCOC)c2nc3ccccc3nc12 | 1.91 µM (active) | 1.02 µM (active) | 0.596 µM (active) |
| O=C(COC(=O)c1ccc([N+](=O)[O-])s1)NCCc1ccccc1 | 4.74 µM (active) | 7.56 µM (active) | 4.79 µM (active) |
